Source: PMC9792171, “Design and synthesis of new thiazolidinone/uracil derivatives as antiproliferative agents targeting EGFR and/or BRAF^V600E” (Frontiers in Chemistry, 2022)

Columns and labels:
[1] = test system: Panc-1 (pancreas cancer cell line); experiment: Antiproliferative MTT assay, Panc-1; assay type: cell-based; conditions: Homo sapiens; Panc-1, MTT; read-out: Antiproliferative activity IC50 ± SEM (nM) Panc-1
Protocol: (§1) Using the MTT assay ([Abdelrahman et al., 2017]; [El-Sherief et al., 2018]) and doxorubicin as the reference drug, 3a-f and 5a-l were tested for antiproliferative activity against four human cancer cell lines: Panc-1 (pancreas cancer cell line), MCF-7 (breast cancer cell line), HT-29 (colon cancer cell line), and A-549 (epithelial cancer cell line).
(§2) To explore the antiproliferative potential of compounds MTT assay was performed according to previously reported procedure (El-Sherief, H.A.M., et al., 2018; Abdelrahman, M. H., et al., 2017) using different cell lines to explore the antiproliferative potential of compounds propidium iodide fluorescence assay was performed using different cell lines. To calculate the total nuclear DNA, a fluorescent dye (propidium iodide, PI) is used which can attach to the DNA, thus offering a quick and precise technique. PI cannot pass through the cell membrane and its signal intensity can be considered as directly proportional to quantity of cellular DNA. Cells whose cell membranes are damaged or have changed permeability are counted as dead ones. The assay was performed by seeding the cells of different cell lines at a density of 3000-7500 cells/well (in 200µl medium) in culture plates followed by incubation for 24h at 37 °C in humidified 5% CO2/95% air atmospheric conditions. The medium was removed; the compounds were added to the plates at 10 µM concentrations (in 0.1% DMSO) in triplicates, followed by incubation for 48 h. DMSO (0.1%) was used as control. After incubation, medium was removed followed by the addition of PI (25 µl, 50µg/mL in water/medium) to each well of the plates. At -80 °C, the plates were allowed to freeze for 24 h, followed by thawing at 25 °C. A fluorometer (Polar-Star BMG Tech) was used to record the readings at excitation and emission wavelengths of 530 and 620 nm for each well. The percentage cytotoxicity of compounds was calculated using the following formula: […]

[2] = test system: MCF-7 (breast cancer cell line); experiment: Antiproliferative MTT assay, MCF-7; assay type: cell-based; conditions: Homo sapiens, MCF7; MCF-7, MTT; read-out: Antiproliferative activity IC50 ± SEM (nM) MCF-7
Protocol: as §1, §2

[3] = test system: HT-29 (colon cancer cell line); experiment: Antiproliferative MTT assay, HT-29; assay type: cell-based; conditions: Homo sapiens; HT-29, MTT; read-out: Antiproliferative activity IC50 ± SEM (nM) HT-29
Protocol: as §1, §2

[4] = Cell viability assay (MTT), MCF-10A; assay type: cell-based; conditions: human, MCF-10A mammary gland epithelial cells, MCF-10A cells, incubated 4 days
Protocol: To test the viability of new compounds, the human mammary gland epithelial (MCF-10A) cell line was used ([Youssif et al., 2019]; [Mahmoud et al., 2022]). MCF-10A cells were incubated with compounds 3a-f and 5a-l for 4 days before being tested for viability using the MTT assay.
MTT assay was carried out to study the effect of compounds on mammary epithelial cells (MCF-10A) (Youssif, B. G. M. et al., 2019; Mahmoud, M. A., et al., 2022). The medium in which cells were propagated contained Dulbecco's modified Eagle's medium (DMEM)/ Ham's F-12 medium (1:1) supplemented with epidermal growth factor (20 ng/mL), hydrocortisone (500 ng/mL), insulin (10 μg/mL), 2 mM glutamine and 10% foetal calf serum. After every 2-3 days, the cells were passaged using trypsin ethylenediamine tetra acetic acid (EDTA). The cells were seeded at a density of 10^4 cells mL^-1 in flat-bottomed culture plates containing 96 wells each. After 24 h, medium was removed from the plates and the compounds in (in 0.1% DMSO) were added (in 200 μL medium to yield a final concentration of 0.1% v/v) to the wells of plates. A single compound was designated with four wells followed by incubation of plates for 96h at 37°C. After incubation, medium was removed completely from the plates followed by addition of MTT (0.4 mg/mL in medium) to each well and subsequent incubation of plates for 3h. MTT (along with the medium) was removed and DMSO (150μL) was added to each well of the culture plates, followed by vortexing and subsequent measurement of absorbance (at 540 nm) using microplate reader. The data are shown as percentage inhibition of proliferation in comparison with controls containing 0.1% DMSO.

[5] = test system: four human cancer cell lines (A-549, MCF-7, Panc-1, HT-29); experiment: Antiproliferative MTT assay, average of four cancer cell lines (GI50); assay type: cell-based; conditions: for IC50: Homo sapiens, average of A-549, MCF-7, Panc-1, HT-29
Protocol: as §1, with “line). […]” for “line).”
as §2

[6] = test system: A-549 (epithelial cancer cell line); experiment: Antiproliferative MTT assay, A-549; assay type: cell-based; conditions: Homo sapiens, A549; A-549, MTT; read-out: Antiproliferative activity IC50 ± SEM (nM) A-549
Protocol: as §1, §2

BRAF^V600E = molecular target: T1, BRAF^V600E (Mus musculus, UniProt P28028, V585E); experiment: BRAF^V600E inhibitory assay (V600E mutant BRAF kinase assay); assay type: biochemical; conditions: read-out: BRAF^V600E inhibition IC50 ± SEM
T1 construct: Mouse full-length GST-tagged BRAF^V600E (7.5 ng, Invitrogen, PV3849); GST; purchased Invitrogen PV3849
T1 sequence (P28028 whole entry V585E): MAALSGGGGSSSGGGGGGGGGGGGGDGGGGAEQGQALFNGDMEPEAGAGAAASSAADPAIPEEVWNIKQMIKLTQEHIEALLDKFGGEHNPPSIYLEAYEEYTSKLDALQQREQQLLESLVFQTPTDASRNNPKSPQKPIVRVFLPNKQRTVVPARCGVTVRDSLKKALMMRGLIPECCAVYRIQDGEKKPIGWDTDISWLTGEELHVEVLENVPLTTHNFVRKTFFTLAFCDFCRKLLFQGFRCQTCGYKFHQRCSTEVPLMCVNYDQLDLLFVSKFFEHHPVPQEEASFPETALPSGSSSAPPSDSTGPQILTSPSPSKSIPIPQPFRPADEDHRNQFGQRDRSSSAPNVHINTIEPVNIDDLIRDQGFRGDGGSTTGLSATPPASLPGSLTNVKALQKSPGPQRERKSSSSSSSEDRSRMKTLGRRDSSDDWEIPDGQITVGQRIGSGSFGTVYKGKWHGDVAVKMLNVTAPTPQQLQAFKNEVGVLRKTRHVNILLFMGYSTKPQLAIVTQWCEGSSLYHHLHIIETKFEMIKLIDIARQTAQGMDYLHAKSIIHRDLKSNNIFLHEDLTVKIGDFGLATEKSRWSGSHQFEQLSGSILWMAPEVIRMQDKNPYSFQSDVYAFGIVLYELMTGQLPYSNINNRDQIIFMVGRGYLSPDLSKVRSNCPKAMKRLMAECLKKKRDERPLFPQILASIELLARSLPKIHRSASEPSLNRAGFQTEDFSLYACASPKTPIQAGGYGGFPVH
Protocol: Mouse full-length GST-tagged BRAF^V600E (7.5 ng, Invitrogen, PV3849) was pre-incubated with drug (1 µL) and assay dilution buffer (4 µL) for 60 min at 25 °C. In assay dilution buffer, a solution (5 µL) containing MgCl2 (30 mM), ATP (200 µM), recombinant human full length (200 ng) […] N-terminal His-tagged MEK1 (Invitrogen) was added to start the assay, subsequent to incubation for 25 min at 25 °C. The assay was stopped using 5X protein denaturing buffer (LDS) solution (5 µL). To further denature the protein, heat (70° C) was applied for 5 min. […] 10 µL of each reaction was loaded into the precast plates and electrophoresis was allowed to proceed. After completion of electrophoresis, the front part of the precast gel plate (holding hot ATP) was cut and afterwards cast-off. The dried gel was developed using a phosphor screen. […] To study the effect of compounds on cell-based pERK1/2 activity in cancer cells, commercially available ELISA kits (Invitrogen) were used according to manufacturer’s instructions.

IC50 [1] [nM]	IC50 [2] [nM]	IC50 [3] [nM]	IC50 [5] [nM]	IC50 [6] [nM]	IC50 (BRAF^V600E) [nM]	fold less potent than compound 5j (GI50) ([5]; ratio of GI50 values) [fold]	Compound	viability at 4 days, 50 µM [4] [%]
1200 ± 100	900 ± 100	1200 ± 100	1100	1100 ± 100	115 ± 12		COC(=O)/C=C1\S/C(=N\c2c[nH]c(=O)[nH]c2=O)N(Cc2ccccc2)C1=O [Compound 5j, (Z)-Methyl-2-((Z)-3-benzyl-2-((2,4-dioxo-1,2,3,4-tetrahydropyrimidin-5-yl)imino)-4-oxothiazolidin-5-ylidene)acetate]	89
2100 ± 200	1400 ± 100	2100 ± 200	1850	1800 ± 200	148 ± 12		COc1cccc(NC(=S)Nc2c[nH]c(=O)[nH]c2=O)c1 [Compound 3c, 1-(2,4-Dioxo-1,2,3,4-tetrahydropyrimidin-5-yl)-3-(3-methoxyphenyl)thiourea]	89
1900 ± 200	1600 ± 100	1800 ± 100	1700	1500 ± 100	107 ± 10		CCOC(=O)/C=C1\S/C(=N\c2c[nH]c(=O)[nH]c2=O)N(c2cccc(OC)c2)C1=O [Compound 5c, (Z)-Ethyl-2-((Z)-2-((2,4-dioxo-1,2,3,4-tetrahydropyrimidin-5-yl)imino)-3-(3-methoxyphenyl)-4-oxo-thiazolidin-5-ylidene)acetate]	96
1400 ± 100	1100 ± 100	1400 ± 100	1300	1200 ± 100	93 ± 8	1.2	CCOC(=O)/C=C1\S/C(=N\c2c[nH]c(=O)[nH]c2=O)N(c2ccc(C)cc2)C1=O [Compound 5b, (Z)-Ethyl-2-((Z)-2-((2,4-dioxo-1,2,3,4-tetrahydropyrimidin-5-yl)imino)-4-oxo-3-(p-tolyl)thiazolidin-5-ylidene)acetate]	92
1800 ± 100	1700 ± 100	1700 ± 100	1650	1400 ± 100	137 ± 12		COC(=O)/C=C1\S/C(=N\c2c[nH]c(=O)[nH]c2=O)N(c2ccc(C)cc2)C1=O [Compound 5h, (Z)-Methyl-2-((Z)-2-((2,4-dioxo-1,2,3,4-tetrahydropyrimidin-5-yl)imino)-4-oxo-3-(p-tolyl)-thiazolidin-5-ylidene)acetate]	92
1500 ± 100	1000 ± 80	1600 ± 100	1350	1300 ± 100	122 ± 12		COC(=O)/C=C1\S/C(=N\c2c[nH]c(=O)[nH]c2=O)N(c2cccc(OC)c2)C1=O [Compound 5i, (Z)-Methyl-2-((Z)-2-((2,4-dioxo-1,2,3,4-tetrahydropyrimidin-5-yl)imino)-3-(3-methoxyphenyl)-4-oxothiazolidin-5-ylidene)acetate]	89
